pEC50: −log10 of the molar value. Active and inactive are the calls of the source.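 How the source made its calls: active means growth-inhibition EC50 no more than tenfold above the top tested dose; inconclusive means flat fit between 30% and 70% inhibition, or unreliable fit; inactive means EC50 more than tenfold above the top tested dose.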
System: E. coli NEB5alpha growth, BacTiter-Glo luminescence, 4 h
Assay: Escherichia coli growth inhibition, dose response, counter-screen for MEX-5/POS-1 RNA-binding inhibitor project, luminescence, NEB5alpha (AID 1959);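 further: pUC19-transformed ampicillin-resistant cells grown in LB with ampicillin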

Compound: COc1cccc(C2(O)CCN(CC(=O)Nc3nc(C)cs3)CC2)c1
- EC50: > 11 µM (inactive)

Compound: CS(=O)(=O)Nc1nc2n(n1)C(c1ccccc1)C=C(c1ccc(Br)cc1)N2 (stereo unspecified)
- EC50: > 11 µM (inactive)

Compound: Cn1cc(/C=C2\C(=O)NC(=O)N(c3ccccc3)C2=O)c2ccccc21
- EC50: > 11 µM (inactive)

Compound: Oc1ccc2ccccc2c1C=Nc1ccc(N2CCOCC2)cc1
- EC50: > 11 µM (inactive)

Compound: CC(C)(C)c1ccc(/C=C2\Oc3cc(O)ccc3C2=O)cc1
- EC50: > 11 µM (inactive)

Compound: Cn1c(=O)[nH]c(=O)c2c1nc(N/N=C/C(Br)=C/c1ccccc1)n2CCO
- EC50: > 11 µM (inactive)

Compound: N#Cc1c(N)nc(SCc2ccncc2)c(C#N)c1-c1cccs1
- EC50: > 11 µM (inactive)

Compound: Cc1ccc(Sc2ccc(C=C3C(=O)N(C)C(=O)N(C)C3=O)o2)cc1
- EC50: > 11 µM (inactive)

Compound: CC(=O)n1c(C=Nc2ccccc2)c(O)c2ccccc21
- EC50: > 11 µM (inactive)

Compound: O=C(Nc1ccc(Br)cn1)c1ccc2nccnc2c1
- EC50: > 11 µM (inactive)

Compound: O=C(NCC1CCCO1)c1nn2c(C(F)(F)F)cc(-c3cc(Br)cs3)nc2c1Br (stereo unspecified)
- EC50: > 11 µM (inactive)

Compound: C=CCN1C(=O)NC(=O)/C(=C/C=C/c2ccccc2)C1=O
- EC50: > 11 µM (inactive)

Compound: O=C(NNC(=O)c1cnccn1)c1ccc(Cl)cc1
- EC50: > 11 µM (inactive)

Compound: O=C(CN1C(=O)C2CC=C(Cl)CC2C1=O)NCc1ccccc1 (stereo unspecified)
- EC50: > 11 µM (inactive)

Compound: FC(F)(F)c1cc(C(F)(F)F)n2nc(-c3sccc3-n3cccc3)cc2n1
- EC50: > 11 µM (inactive)

Compound: CC1(C)CC(=O)C2=C(C1)OC(N)=C(C#N)C2c1ccccc1 (stereo unspecified)
- EC50: > 11 µM (inactive)

Compound: CCC(=O)Nc1ccc2nc3c(=O)[nH]c(=S)[nH]c3nc2c1
- EC50: > 11 µM (inactive)

Compound: CN(C)C1C(=O)C(C(N)=O)=C(O)C2(O)C(=O)C3=C(O)c4c(O)cccc4C(C)(O)C3C(O)C12 (stereo unspecified)
- pEC50: 5.06

Compound: O=C(c1ccco1)N1CCN(c2ncnc3c(-c4ccc(Cl)cc4)nsc23)CC1
- EC50: > 11 µM (inactive)

Compound: O=S(=O)(c1ccccc1)N1CCC(O)(CSc2ccc(Cl)cc2)CC1
- EC50: > 11 µM (inactive)

Compound: O=c1oc2ccccc2cc1-c1nc(-c2cccs2)cs1
- EC50: > 11 µM (inactive)

Compound: O=c1[nH]c(=O)n(-c2ccc(Br)cc2)c(O)c1C=NCCN1CCCCC1
- EC50: > 11 µM (inactive)

Compound: COC(=O)CCCC1=CC2=CC(=O)C(C)(OC(=O)c3cccs3)C(=O)C2=CO1 (stereo unspecified)
- EC50: > 11 µM (inactive)

Compound: COc1ccc(/C=C2\CCCc3c2nc2ccccc2c3C(=O)O)cc1OC
- EC50: > 11 µM (inactive)

Compound: Cc1ccc(S(=O)(=O)C(C#N)c2nc3ccccc3nc2N2CCC(C)CC2)cc1 (stereo unspecified)
- EC50: > 11 µM (inactive)

Compound: Cc1cc(C)c(S(=O)(=O)Nc2cc(SCC(=O)O)c(O)c3ccccc23)cc1C
- EC50: > 11 µM (inactive)

Compound: COc1cccc(C2C(C#N)=C(N)OC3=C2C(=O)CCC3)c1OC(=O)c1ccco1 (stereo unspecified)
- EC50: > 11 µM (inactive)

Compound: CCOC(=O)C1=C(C)N=c2s/c(=C/c3ccc(OCC(=O)O)cc3)c(=O)n2C1c1ccc(OC)cc1OC (stereo unspecified)
- EC50: > 11 µM (inactive)

Compound: COc1ccccc1N1C(=O)S/C(=C\c2ccc(C)s2)C1=O
- EC50: > 11 µM (inactive)

Compound: CC(Cc1ccc(O)c(O)c1)C(C)Cc1ccc(O)c(O)c1 (stereo unspecified)
- EC50: > 11 µM (inactive)

Compound: CN=C1S/C(=C\c2ccc(N3CCCC3)c(F)c2)C(=O)N1C
- EC50: > 11 µM (inactive)

Compound: CCOC(=O)c1cc(=O)n2nc(-c3ccc(C)cc3)nc2s1
- EC50: > 11 µM (inactive)

Compound: CCN1C(=O)C(=Cc2ccc(N3CCOCC3)o2)C(=O)N(CC)C1=S
- EC50: > 11 µM (inactive)

Compound: CC(=O)NCCNc1ccc([N+](=O)[O-])cc1C#N
- EC50: > 11 µM (inactive)

Compound: CCOC(=O)/C=c1\s/c(=C\c2ccc3cc(OC)ccc3c2)c(=O)n1CC(=O)NCC1CCCO1 (stereo unspecified)
- EC50: > 11 µM (inactive)

Compound: O=C(N[C@H]1CP(=O)(Oc2ccccc2)O[C@H](COCc2ccccc2)[C@H]1O)C(Cl)(Cl)Cl (stereo partly specified)
- EC50: > 11 µM (inactive)

Compound: O=C(Cc1ccccc1)NNC(=O)c1cnccn1
- EC50: > 11 µM (inactive)

Compound: CC1(C)CC(=O)C2=C(C1)OC(N)=C(C#N)C2c1ccc2c(c1)OCO2 (stereo unspecified)
- EC50: > 5.6 µM (inactive)

Compound: CCCn1nc(C(=O)Nc2ccc(S(=O)(=O)Nc3nccs3)cc2)c2ccccc2c1=O
- EC50: > 11 µM (inactive)

Compound: CC(C)(C)NC(=S)NCCc1ccccc1
- EC50: > 11 µM (inactive)

Compound: Cc1c(O)ccc(-c2n[nH]c(C(=O)O)c2-c2nc3ccccc3s2)c1O
- EC50: > 11 µM (inactive)

Compound: COc1ccc(C(=O)Nc2cc(C(C)=O)c(/C=C/N(C)C)oc2=O)cc1
- EC50: > 11 µM (inactive)

Compound: Cc1ccc(C)c(N(C)C(=O)c2coc(=O)c3ccccc23)c1
- EC50: > 11 µM (inactive)

Compound: CCOC(=O)C1CCN(C(=O)CCC(=O)NNc2nc3ccccc3c3nc(C)nn23)CC1
- EC50: > 11 µM (inactive)

Compound: CCOc1cc(/C=C2\SC(=Nc3ccc(CC)cc3)NC2=O)ccc1OCC(=O)O
- EC50: > 11 µM (inactive)

Compound: O=C(NNC(=O)c1cc(Cl)ccc1[N+](=O)[O-])c1csc(N2CCOCC2)n1
- EC50: > 11 µM (inactive)

Compound: CS/C(=N\S(=O)(=O)c1cccs1)Nc1cccc(Cl)c1C
- EC50: > 11 µM (inactive)

Compound: Cc1n[nH]c(=S)c2nn(-c3cccc(Cl)c3)c(C)c12
- EC50: > 11 µM (inactive)

Compound: O=C(N/N=C/c1cc(Cl)cc([N+](=O)[O-])c1O)c1ccccc1NS(=O)(=O)c1cccs1
- EC50: > 11 µM (inactive)

Compound: COc1cccc(/C=N/Nc2ncnc(N)c2[N+](=O)[O-])c1OC
- EC50: > 11 µM (inactive)

Compound: O=C(Nc1ccccc1)NC1(C(=O)NCc2ccc3c(c2)OCO3)CCCCC1
- EC50: > 11 µM (inactive)

Compound: O=c1[nH]c(=O)n(Cc2ccccc2)c(O)c1C=Nc1ccc(CN2CCOCC2)cc1
- EC50: > 11 µM (inactive)

Compound: CN(C)c1ccc(/C=C/C(=O)c2cccc(Br)c2)cc1
- EC50: > 11 µM (inactive)

Compound: CC1(C)CC(=O)C2=C(C1)Nc1ccccc1S2
- EC50: > 11 µM (inactive)

Compound: CCC(C)n1c(=N)c(C#N)cc2c(=O)n3cc(C)ccc3nc21 (stereo unspecified)
- EC50: > 11 µM (inactive)

Compound: Cc1ccc(C(=O)O)cc1-n1c(C)cc(C=O)c1C
- EC50: > 11 µM (inactive)

Compound: CC1(OC(=O)C2CCCC2)C(=O)C=C2C=C(C3CC3)OC=C2C1=O (stereo unspecified)
- EC50: > 11 µM (inactive)

Compound: COc1ccc(NC(=O)Nc2cc(C)cc(C)c2)cn1
- EC50: > 11 µM (inactive)

Compound: CCC(=O)OC1(C)C(=O)C=C2C=C(c3ccc(C#N)cc3)OC=C2C1=O (stereo unspecified)
- EC50: > 11 µM (inactive)

Compound: CCC(C)/C=C(C)/C=C/C1=CC2=C(Cl)C(=O)C(C)(OC(C)=O)C(=O)C2=CO1 (stereo unspecified)
- EC50: > 11 µM (inactive)

Compound: Clc1ccc(C2=CC(c3ccco3)n3ncnc3N2)cc1 (stereo unspecified)
- EC50: > 11 µM (inactive)

Compound: CC1C(=O)NN=C1C(=O)N/N=C/c1ccco1 (stereo unspecified)
- EC50: > 11 µM (inactive)

Compound: O=C(O)c1cccc(-n2cccc2/C=C2/SC(=O)N(CC(=O)N3CCCC3)C2=O)c1
- EC50: > 11 µM (inactive)

Compound: CCOC(=O)c1ccc(CC(=O)c2ccc(O)c(O)c2O)o1
- EC50: > 11 µM (inactive)

Compound: CCCSc1nnc2nc3c(nn12)c1ccccc1n3C
- EC50: > 11 µM (inactive)

Compound: CCOC(=O)c1c(NC(=O)Nc2ccc(F)cc2)sc2c1CCN(C)C2
- EC50: > 11 µM (inactive)

Compound: COc1cc(/C=N/c2oc(-c3ccccc3)cc2C#N)ccc1O
- EC50: > 11 µM (inactive)

Compound: Cc1ccc(/C=C2\Oc3c(ccc(O)c3CN3CCN(C)CC3)C2=O)cc1
- EC50: > 11 µM (inactive)

Compound: O=C(CN1CCC(n2nnc3cc(F)ccc32)CC1)NCCc1ccccc1
- EC50: > 11 µM (inactive)

Compound: CCC(=S)/C=C1\Sc2ccc3ccccc3c2N1CCCS(=O)(=O)O
- EC50: > 11 µM (inactive)

Compound: CC1CCN(C(=O)CCN2C(=O)/C(=C/c3cccs3)SC2=S)CC1
- EC50: > 11 µM (inactive)

Compound: Cc1cc(=O)n2[nH]c(N)c(N=Nc3ccccc3)c2n1
- EC50: > 11 µM (inactive)

Compound: c1ccc(-c2cn3nc(-c4ccccc4)c(-c4ccccc4)nc3n2)cc1
- EC50: > 11 µM (inactive)

Compound: N#Cc1cc(NC(=O)c2ccc(F)cc2)c(=O)n2c1[nH]c1ccccc12
- EC50: > 11 µM (inactive)

Compound: O=C(NCC1CCCO1)c1ccc(CS(=O)(=O)Cc2ccc(F)cc2)o1 (stereo unspecified)
- EC50: > 11 µM (inactive)

Compound: CN(C)/C=C/C(=O)c1cnc(-c2ccccc2Cl)s1
- EC50: > 11 µM (inactive)

Compound: Cc1cccn2c(=O)c3cc(C(=O)NC4CCCC4)c(=N)n(CCc4ccccc4)c3nc12
- EC50: > 11 µM (inactive)

Compound: CN1C[C@H](CO)C=C2c3cccc4[nH]cc(c34)C[C@H]21
- EC50: > 11 µM (inactive)

Compound: C=CCN1C=C2C(=O)C(C)(OC(=O)CCC(=O)OC)C(=O)C(Br)=C2C=C1c1ccc(OC)cc1 (stereo unspecified)
- EC50: > 11 µM (inactive)

Compound: COc1ccc(C(=O)/C=C/Nc2ccc([N+](=O)[O-])cc2C)cc1OC
- EC50: > 11 µM (inactive)

Compound: CCOc1ccc(C2OC34CCCCC3C(C#N)(C#N)C2(C#N)C(=N)O4)cc1OC (stereo unspecified)
- EC50: > 11 µM (inactive)

Compound: CN1C(=O)c2ccccc2NC(=O)[C@]12O[C@@H]2c1cccc(O)c1
- EC50: > 11 µM (inactive)

Compound: O=C1CCC/C(=N/NC(=O)c2sc3ccccc3c2Cl)C1
- EC50: > 11 µM (inactive)

Compound: N#C/C(=C/c1cccn1-c1cccc(C(=O)O)c1)c1ccc(Cl)cc1
- EC50: > 11 µM (inactive)

Compound: O=C(N/N=C/c1c(O)n(CCc2ccccc2)c(=O)[nH]c1=O)c1ccccc1
- EC50: > 11 µM (inactive)

Compound: CC1=CC(C)(C)N2C(=O)C3(C(C#N)=C(N)OC4=C3C(=O)CC(C)(C)C4)c3cc(C)cc1c32 (stereo unspecified)
- EC50: > 11 µM (inactive)

Compound: CN(C)c1cccc2c1c(NS(=O)(=O)c1cn(C)cn1)nn2C
- EC50: > 11 µM (inactive)

Compound: N#Cc1c(N)n(-c2ccc(C(=O)O)cc2)c2nc3ccccc3nc12
- EC50: > 11 µM (inactive)

Compound: CN1CCN(C2=C(Cl)C(=O)C(c3cnc(N4CCCCC4)s3)=C(Cl)C2=O)CC1
- EC50: > 11 µM (inactive)

Compound: COc1ccc(-c2nnc(-c3cc4c(ccc5ccccc54)oc3=O)o2)cc1
- EC50: > 11 µM (inactive)

Compound: S=C(NCc1ccncc1)Nc1ccc(Cl)cc1Cl
- EC50: > 11 µM (inactive)

Compound: O=c1c2ccccc2oc2ccc(NCCCn3ccnc3)cc12
- EC50: > 11 µM (inactive)

Compound: CC(=O)c1ccc2c(c1)C1C=CCC1C(c1ccncc1)N2 (stereo unspecified)
- EC50: > 11 µM (inactive)

Compound: Cc1c2ccccc2nc2c(F)c(NC(C)C)c(F)c(F)c12
- EC50: > 11 µM (inactive)

Compound: Cc1cc([N+](=O)[O-])cc2c1NCC1CC=CC21 (stereo unspecified)
- EC50: > 11 µM (inactive)

Compound: C=CCN1C(=O)S/C(=C\c2ccc(N3CCOCC3)cc2C)C1=O
- EC50: > 11 µM (inactive)

Reference: PubChem BioAssay AID1959 (Broad Institute, 2009)
